For 33 molecules, Ki results are on record in US20090099158A1, “TETRAHYDROISOQUINOLINE COMPOUNDS AS MODULATORS OF THE HISTAMINE H3 RECEPTOR” (priority 2007, published 2009).

Structures are written as SMILES.

In this test the target is T1, cloned human H3 receptors (Homo sapiens, UniProt Q9Y5N1).
T1 construct: expressed in transfected cells; host or cells: SK-N-MC cells
Nature of the test: H3 Receptor Binding (Human). To be noted: cloned human H3 receptors stably expressed in SK-N-MC cells; average of the results obtained. How it is done: Binding of compounds to the cloned human H3 receptors, stably expressed in SK-N-MC cells, was performed as described by Barbier, A. J. et al. (Br. J. Pharmacol. 2004, 143(5), 649-661). Data for compounds tested in this assay are presented in Table 1 as an average of the results obtained.

T1 sequence (Q9Y5N1 whole entry): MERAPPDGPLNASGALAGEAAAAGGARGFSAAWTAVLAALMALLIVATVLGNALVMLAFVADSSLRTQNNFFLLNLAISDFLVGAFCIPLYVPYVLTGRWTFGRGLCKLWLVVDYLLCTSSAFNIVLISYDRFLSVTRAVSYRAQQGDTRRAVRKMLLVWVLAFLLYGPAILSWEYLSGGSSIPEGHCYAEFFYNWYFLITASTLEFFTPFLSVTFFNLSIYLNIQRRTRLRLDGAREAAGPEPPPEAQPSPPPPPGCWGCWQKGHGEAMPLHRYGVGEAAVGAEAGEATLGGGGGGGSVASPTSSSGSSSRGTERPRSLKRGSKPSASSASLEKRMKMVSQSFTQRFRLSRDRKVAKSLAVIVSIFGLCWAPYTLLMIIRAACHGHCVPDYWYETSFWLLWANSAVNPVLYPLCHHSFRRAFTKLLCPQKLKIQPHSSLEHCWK

In general, Ki refers to the equilibrium dissociation constant of an inhibitor or competing ligand from its target. Read a high Ki as a looser hold on the target. With `CC(C)N1CCN(C(=O)c2ccc3c(c2)CCN(C(=O)c2ccc(Cl)cc2)C3)CC1` [Example 110, [2-(4-Chloro-benzoyl)-1,2,3,4-tetrahydro-isoquinolin-6-yl]-(4-isopropyl-piperazin-1-yl)-methanone], the inhibitory constant (Ki) stood at 47 nM.
`CC(C)N1CCN(C(=O)c2ccc3c(c2)CCN(C(=O)c2ccc(Cl)c(Cl)c2)C3)CC1` [Example 111, [2-(3,4-Dichloro-benzoyl)-1,2,3,4-tetrahydro-isoquinolin-6-yl]-(4-isopropyl-piperazin-1-yl)-methanone] showed a Ki of 24 nM.
To `COc1ccc(C(=O)N2CCc3cc(C(=O)N4CCN(C5CCC5)CC4)ccc3C2)cc1` [Example 112, (4-Cyclobutyl-piperazin-1-yl)-[2-(4-methoxy-benzoyl)-1,2,3,4-tetrahydro-isoquinolin-6-yl]-methanone] belongs 20 nM.
To `Cc1ccc(C(=O)N2CCc3cc(C(=O)N4CCN(C5CCC5)CC4)ccc3C2)cc1` [Example 113, (4-Cyclobutyl-piperazin-1-yl)-[2-(4-methyl-benzoyl)-1,2,3,4-tetrahydro-isoquinolin-6-yl]-methanone] belongs 22 nM; to `O=C(c1ccc2c(c1)CCN(C(=O)c1ccc(Cl)c(Cl)c1)C2)N1CCN(C2CCC2)CC1` [Example 114, (4-Cyclobutyl-piperazin-1-yl)-[2-(3,4-dichloro-benzoyl)-1,2,3,4-tetrahydro-isoquinolin-6-yl]-methanone], 13 nM; to `O=C(c1ccc2c(c1)CCN(C(=O)c1ccsc1)C2)N1CCN(C2CCC2)CC1` [Example 115, (4-Cyclobutyl-piperazin-1-yl)-[2-(thiophene-3-carbonyl)-1,2,3,4-tetrahydro-isoquinolin-6-yl]-methanone], 11 nM.
Consider `CN(C)c1cccc(C(=O)N2CCc3cc(C(=O)N4CCN(C5CCC5)CC4)ccc3C2)c1` [Example 116, [6-(4-Cyclobutyl-piperazine-1-carbonyl)-3,4-dihydro-1H-isoquinolin-2-yl]-(3-dimethylamino-phenyl)-methanone], for which the inhibition constant (Ki) worked out at 18 nM.
To `CN(C)c1ccc(C(=O)N2CCc3cc(C(=O)N4CCN(C5CCC5)CC4)ccc3C2)cc1` [Example 117, [6-(4-Cyclobutyl-piperazine-1-carbonyl)-3,4-dihydro-1H-isoquinolin-2-yl]-(4-dimethylamino-phenyl)-methanone] belongs 13 nM; to `O=C(c1ccc2c(c1)CCN(C(=O)c1ccc(Cl)cc1Cl)C2)N1CCN(C2CCC2)CC1` [Example 118, [6-(4-Cyclobutyl-piperazine-1-carbonyl)-3,4-dihydro-1H-isoquinolin-2-yl]-(2,4-dichloro-phenyl)-methanone], 8 nM; to `O=C(c1ccc2c(c1)CCN(C(=O)c1cccc(Cl)c1)C2)N1CCN(C2CCC2)CC1` [Example 119, (3-Chloro-phenyl)-[6-(4-cyclobutyl-piperazine-1-carbonyl)-3,4-dihydro-1H-isoquinolin-2-yl]-methanone], 11 nM.
`Cc1cccc(C(=O)N2CCc3cc(C(=O)N4CCN(C5CCC5)CC4)ccc3C2)c1` [Example 120, [6-(4-Cyclobutyl-piperazine-1-carbonyl)-3,4-dihydro-1H-isoquinolin-2-yl]-m-tolyl-methanone] had an inhibition constant Ki of 12 nM.
`O=C(c1ccc2c(c1)CCN(C(=O)c1cccc([N+](=O)[O-])c1)C2)N1CCN(C2CCC2)CC1` [Example 121, [6-(4-Cyclobutyl-piperazine-1-carbonyl)-3,4-dihydro-1H-isoquinolin-2-yl]-(3-nitro-phenyl)-methanone]: affinity was put at a Ki of 5 nM.
Regarding `O=C(c1ccc2c(c1)CCN(C(=O)c1ccc([N+](=O)[O-])cc1)C2)N1CCN(C2CCC2)CC1` [Example 122, [6-(4-Cyclobutyl-piperazine-1-carbonyl)-3,4-dihydro-1H-isoquinolin-2-yl]-(4-nitro-phenyl)-methanone], the affinity, expressed as Ki, was 7 nM. This Ki and that of the molecule before are within 1.5-fold of each other.
`O=C(c1ccc2c(c1)CCN(C(=O)c1ccc(O)cc1)C2)N1CCN(C2CCC2)CC1` [Example 123, [6-(4-Cyclobutyl-piperazine-1-carbonyl)-3,4-dihydro-1H-isoquinolin-2-yl]-(4-hydroxy-phenyl)-methanone] came in with an inhibition constant (Ki) of 16 nM.
As for `O=C(c1ccc2c(c1)CCN(C(=O)c1ccc(F)c(O)c1)C2)N1CCN(C2CCC2)CC1` [Example 124, (4-Cyclobutyl-piperazin-1-yl)-[2-(4-fluoro-3-hydroxy-benzoyl)-1,2,34-tetrahydro-isoquinolin-6-yl]-methanone], the affinity corresponds to a Ki of 24 nM.
Molecule `O=C(c1ccc2c(c1)CCN(C(=O)c1ccc(F)cc1)C2)N1CCN(C2CCC2)CC1` [Example 125, (4-Cyclobutyl-piperazin-1-yl)-[2-(4-fluoro-benzoyl)-1,2,3,4-tetrahydro-isoquinolin-6-yl]-methanone] yielded a Ki of 17 nM.
For `O=C(c1ccc2c(c1)CCN(C(=O)c1ccc(F)cc1F)C2)N1CCN(C2CCC2)CC1` [Example 126, (4-Cyclobutyl-piperazin-1-yl)-[2-(2,4-difluoro-benzoyl)-1,2,3,4-tetrahydro-isoquinolin-6-yl]-methanone], the affinity, expressed as Ki, was 9 nM.
To `Cc1ccc(C(=O)N2CCc3cc(C(=O)N4CCN(C5CCC5)CC4)ccc3C2)cc1F` [Example 127, (4-Cyclobutyl-piperazin-1-yl)-[2-(3-fluoro-4-methyl-benzoyl)-1,2,3,4-tetrahydro-isoquinolin-6-yl]-methanone] belongs 27 nM; to `O=C(c1ccc2c(c1)CCN(C(=O)c1ccc(F)c(Cl)c1)C2)N1CCN(C2CCC2)CC1` [Example 128, [2-(3-Chloro-4-fluoro-benzoyl)-1,2,3,4-tetrahydro-isoquinolin-6-yl]-(4-cyclobutyl-piperazin-1-yl)-methanone], 19 nM; to `O=C(Cc1ccccc1)N1CCc2cc(C(=O)N3CCN(C4CCC4)CC3)ccc2C1` [Example 129, 1-[6-(4-Cyclobutyl-piperazine-1-carbonyl)-3,4-dihydro-1H-isoquinolin-2-yl]-2-phenyl-ethanone], 18 nM.
Regarding `O=C(Cc1ccc(F)cc1)N1CCc2cc(C(=O)N3CCN(C4CCC4)CC3)ccc2C1` [Example 130, 1-[6-(4-Cyclobutyl-piperazine-1-carbonyl)-3,4-dihydro-1H-isoquinolin-2-yl]-2-(4-fluoro-phenyl)-ethanone], the inhibition constant Ki came to 10 nM. This Ki lies about 1.8-fold lower than the previous one.
`CC(C)(C)c1ccc(C(=O)N2CCc3cc(C(=O)N4CCN(C5CCC5)CC4)ccc3C2)cc1` [Example 131, [2-(4-tert-Butyl-benzoyl)-1,2,3,4-tetrahydro-isoquinolin-6-yl]-(4-cyclobutyl-piperazin-1-yl)-methanone] showed a Ki of 78 nM.
The molecule `O=C(c1ccc2c(c1)CCN(C(=O)c1ccc(C3CCCCC3)cc1)C2)N1CCN(C2CCC2)CC1` [Example 132, (4-Cyclobutyl-piperazin-1-yl)-[2-(4-cyclohexyl-benzoyl)-1,2,3,4-tetrahydro-isoquinolin-6-yl]-methanone] returned a Ki of 100 nM.
Molecule `O=C(c1ccc2c(c1)CCN(C(=O)c1ccc(F)cc1)C2)N1CCCN(C2CCC2)CC1` [Example 134, [6-(4-Cyclobutyl-[1,4]diazepane-1-carbonyl)-3,4-dihydro-1H-isoquinolin-2-yl]-(4-fluoro-phenyl)-methanone] came in with a Ki of 1 nM. Against the preceding molecule, the Ki is about 100-fold lower.
To `O=C(c1ccc2c(c1)CCN(C(=O)C1CCCO1)C2)N1CCCN(C2CCC2)CC1` (stereo not drawn) [Example 138, [6-(4-Cyclobutyl-[1,4]diazepane-1-carbonyl)-3,4-dihydro-1H-isoquinolin-2-yl]-(tetrahydro-furan-2-yl)-methanone] belongs 1 nM; to `CCCc1ccc(C(=O)N2CCc3cc(C(=O)N4CCCN(C5CCC5)CC4)ccc3C2)cc1` [Example 140, [6-(4-Cyclobutyl-[1,4]diazepane-1-carbonyl)-3,4-dihydro-1H-isoquinolin-2-yl]-(4-propyl-phenyl)-methanone], 2 nM.
In the case of `O=C(c1ccc2c(c1)CCN(C(=O)c1ccc(F)c(O)c1)C2)N1CCCN(C2CCC2)CC1` [Example 141, [6-(4-Cyclobutyl-[1,4]diazepane-1-carbonyl)-3,4-dihydro-1H-isoquinolin-2-yl]-(4-fluoro-3-hydroxy-phenyl)-methanone], the Ki came to 1 nM.
Regarding `O=C(c1ccc2c(c1)CCN(C(=O)c1ccc(Cl)cc1Cl)C2)N1CCCN(C2CCC2)CC1` [Example 143, [6-(4-Cyclobutyl-[1,4]diazepane-1-carbonyl)-3,4-dihydro-1H-isoquinolin-2-yl]-(2,4-dichloro-phenyl)-methanone], affinity was put at a Ki of 1 nM.
`O=C(c1ccc2c(c1)CCN(C(=O)c1ccc(F)c(Cl)c1)C2)N1CCCN(C2CCC2)CC1` [Example 145, (3-Chloro-4-fluoro-phenyl)-[6-(4-cyclobutyl-[1,4]diazepane-1-carbonyl)-3,4-dihydro-1H-isoquinolin-2-yl]-methanone] came in with an inhibition constant (Ki) of 1 nM.
`COC1CCCC(C(=O)N2CCc3cc(C(=O)N4CCCN(C5CCC5)CC4)ccc3C2)C1` (stereo not drawn) [Example 146, [6-(4-Cyclobutyl-[1,4]diazepane-1-carbonyl)-3,4-dihydro-1H-isoquinolin-2-yl]-(3-methoxy-cyclohexyl)-methanone] showed a Ki of 1 nM.
To `CO[C@H]1CC[C@H](C(=O)N2CCc3cc(C(=O)N4CCCN(C5CCC5)CC4)ccc3C2)CC1` [Example 147, trans-[6-(4-Cyclobutyl-[1,4]diazepane-1-carbonyl)-3,4-dihydro-1H-isoquinolin-2-yl]-(4-methoxy-cyclohexyl)-methanone] belongs 1 nM.
In turn, `CO[C@H]1CC[C@@H](C(=O)N2CCc3cc(C(=O)N4CCCN(C5CCC5)CC4)ccc3C2)CC1` [Example 148, cis-[6-(4-Cyclobutyl-[1,4]diazepane-1-carbonyl)-3,4-dihydro-1H-isoquinolin-2-yl]-(4-methoxy-cyclohexyl)-methanone] displayed a Ki of 1 nM.
For the molecule `CC(C)N1CCC(C(=O)N2CCc3cc(C(=O)N4CCOCC4)ccc3C2)CC1` [Example 149, [2-(1-Isopropyl-piperidine-4-carbonyl)-1,2,3,4-tetrahydro-isoquinolin-6-yl]-morpholin-4-yl-methanone], affinity was put at a Ki of 109 nM. Against the preceding molecule, the Ki is about 110-fold higher.
